{
  "source": "ChEMBL document CHEMBL5620427",
  "about": "“Recent advances in Fragment-based strategies against tuberculosis” (Eur J Med Chem, 2023)",
  "key": {"[1]": {"target": "T1, Enoyl-[acyl-carrier-protein] reductase [NADH] (Mycobacterium tuberculosis, UniProt P9WGR1)", "T1 sequence (P9WGR1 whole entry)": "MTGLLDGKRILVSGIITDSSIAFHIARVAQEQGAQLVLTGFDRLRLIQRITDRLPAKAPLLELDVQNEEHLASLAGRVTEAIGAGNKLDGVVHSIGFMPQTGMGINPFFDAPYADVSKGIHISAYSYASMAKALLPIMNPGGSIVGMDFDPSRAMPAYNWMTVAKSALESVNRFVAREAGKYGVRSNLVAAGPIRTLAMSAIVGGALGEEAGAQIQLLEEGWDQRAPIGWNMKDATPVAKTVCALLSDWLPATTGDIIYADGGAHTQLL", "assay": "Binding affinity to Mycobacterium tuberculosis InhA assessed as dissociation constant"}, "[2]": {"tested_on": "Mycobacterium tuberculosis", "assay": "Antimycobacterial activity against Mycobacterium tuberculosis assessed as reduction in microbial growth by broth microdilution method", "format": "functional"}, "[3]": {"target": "T2, Dihydrofolate reductase (Mycobacterium tuberculosis) (UniProt P9WNX1)", "T2 sequence (whole entry)": "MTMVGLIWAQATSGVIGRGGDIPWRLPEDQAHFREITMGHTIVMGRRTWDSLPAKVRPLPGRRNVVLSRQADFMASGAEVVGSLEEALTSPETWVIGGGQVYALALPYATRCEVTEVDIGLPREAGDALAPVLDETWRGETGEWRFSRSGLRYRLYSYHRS", "assay": "Binding affinity to Mycobacterium tuberculosis DHFR assessed as change in melting temperature at 5 uM by thermal shift assay"}, "Dihydrofolate reductase": {"target": "T3, Dihydrofolate reductase (Mycobacterium tuberculosis, UniProt P9WNX1)", "T3 sequence (P9WNX1 whole entry)": "T2 sequence (whole entry)", "assay": "Binding affinity to Mycobacterium tuberculosis DHFR assessed as dissociation constant"}, "[4]": {"target": "HTH-type transcriptional regulator EthR (Mycobacterium tuberculosis) (UniProt P9WMC1)", "sequence (P9WMC1 whole entry)": "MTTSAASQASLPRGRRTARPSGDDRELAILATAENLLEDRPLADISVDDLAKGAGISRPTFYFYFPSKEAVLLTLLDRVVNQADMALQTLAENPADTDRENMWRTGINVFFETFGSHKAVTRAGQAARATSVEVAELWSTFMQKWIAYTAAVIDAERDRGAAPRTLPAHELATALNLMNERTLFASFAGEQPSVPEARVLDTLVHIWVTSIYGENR", "assay": "Binding affinity to Mycobacterium tuberculosis EthR assessed as change in melting temperature at 100 uM by thermal shift assay"}, "[5]": {"target": "T1, Enoyl-[acyl-carrier-protein] reductase [NADH]", "assay": "Inhibition of Mycobacterium tuberculosis InhA"}, "[6]": {"assay": "Inhibition of N-terminal His-tagged wild type Mycobacterium tuberculosis Rv1837c GlcB expressed in Escherichia coli BL21 by chromatography method"}, "[7]": {"assay": "Metabolic stability in mouse liver microsomes assessed as intrinsic clearance", "format": "ADME, Microsome", "conditions": "read-out: CLH"}, "[8]": {"tested_on": "Mycobacterium tuberculosis", "assay": "Binding affinity to Mycobacterium tuberculosis RV0078 EthR2 assessed as change in melting temperature at 1 uM by thermal shift assay"}, "[9]": {"assay": "Inhibition of Mycobacterium tuberculosis RV0078 EthR2"}, "[10]": {"tested_on": "Mycobacterium tuberculosis", "assay": "Antibacterial activity against Mycobacterium tuberculosis ATCC 27294 assessed as inhibition of cell growth incubated for 7 days by broth dilution method", "format": "functional", "conditions": "ATCC 27294, 168 h, time 7 day"}, "[11]": {"assay": "Metabolic stability in CD-1 mouse liver microsomes assessed as intrinsic clearance at 20 uM measured after 40 mins by LC-MS/MS analysis", "format": "ADME, Microsome"}, "[12]": {"target": "HTH-type transcriptional regulator EthR (Mycobacterium tuberculosis) (UniProt P9WMC1)", "assay": "Binding affinity to Mycobacterium tuberculosis EthR assessed as change in melting temperature at 20 uM by thermal shift assay"}, "[13]": {"tested_on": "Mycobacterium tuberculosis", "assay": "Antimycobacterial activity against Mycobacterium tuberculosis infected in mouse macrophage cells assessed as bacterial growth inhibition", "format": "functional, organism-based"}, "[14]": {"tested_on": "Mycobacterium tuberculosis", "assay": "Antimycobacterial activity against Mycobacterium tuberculosis Erdman infected in BALB/c mouse model assessed as log reduction of bacterial load in lung at 200 mg/kg administered via oral gavage for 2 weeks", "format": "functional"}, "[15]": {"tested_on": "Mycobacterium tuberculosis", "assay": "Antimycobacterial activity against Mycobacterium tuberculosis H37Rv assessed as reduction in bacterial cell growth measured after 7 days by resazurin dye based analysis", "format": "functional", "conditions": "168 h, time 7 day"}, "[16]": {"tested_on": "Mycobacterium tuberculosis", "assay": "Antibacterial activity against Mycobacterium tuberculosis ATCC 27294 assessed as reduction in bacterial cell growth measured after 48 hrs by broth microdilution method", "format": "functional"}, "[17]": {"target": "HTH-type transcriptional regulator EthR (Mycobacterium tuberculosis, UniProt P9WMC1)", "sequence (P9WMC1 whole entry)": "as above", "assay": "Inhibition of Mycobacterium tuberculosis EthR by SPR assay"}, "[18]": {"tested_on": "Mycobacterium tuberculosis", "assay": "Antimycobacterial activity against Mycobacterium tuberculosis H37Rv ATCC 25618 assessed as bacterial growth inhibition", "format": "functional"}, "[19]": {"tested_on": "Mycobacterium tuberculosis", "assay": "Binding affinity to Mycobacterium tuberculosis RV0078 EthR2 assessed as change in melting temperature at 20 uM by thermal shift assay"}, "[20]": {"tested_on": "Mycobacterium tuberculosis", "assay": "Antimycobacterial activity against Mycobacterial tuberculosis assessed as log reduction of bacterial load", "format": "functional"}, "[21]": {"tested_on": "Mycobacterium tuberculosis", "assay": "Antimycobacterial activity against Mycobacterium tuberculosis H37Rv assessed as reduction in bacterial growth incubated for 7 days by resazurin dye based assay", "format": "functional", "conditions": "168 h, time 7 day"}, "[22]": {"tested_on": "Mycobacterium tuberculosis", "assay": "Antimycobacterial activity against Mycobacterium tuberculosis […] assessed as reduction in bacterial growth incubated for 48 hrs by resazurin dye based analysis", "format": "functional"}},
  "data": [
    {"smiles": "Cc1ccn(C(C)c2nnc(Nc3ccn(Cc4c(F)cccc4Cl)n3)s2)n1", "note": "(stereo not drawn)", "values": [
      {"measurement": "Kd", "setting": "[1]", "result": 6.3, "unit": "µM"}
    ]},
    {"smiles": "O=C(CCCC1CCCCC1)N1CCCC1", "values": [
      {"measurement": "MIC50", "setting": "[2]", "result": 1, "unit": "µM"}
    ]},
    {"smiles": "O=C(OCCCC1CCCC1)N1CCCC1", "values": [
      {"measurement": "MIC50", "setting": "[2]", "result": 1, "unit": "µM"}
    ]},
    {"smiles": "O=C(CCc1c[nH]c2ccccc12)Nc1c(C(=O)O)cnn1-c1ccccc1", "values": [
      {"measurement": "ΔTm", "setting": "[3]", "result": 5.1, "unit": "°C"},
      {"measurement": "Kd", "setting": "Dihydrofolate reductase", "result": 0.017, "unit": "µM"}
    ]},
    {"smiles": "O=C(CCC1CCCC1)N1CCCC1", "values": [
      {"measurement": "ΔTm", "setting": "[4]", "result": 3, "unit": "°C"}
    ]},
    {"smiles": "Cc1cncc(CNC(=O)NC2CCN(c3ncccn3)CC2)c1", "values": [
      {"measurement": "Kd", "setting": "[1]", "result": 4.7, "unit": "µM"}
    ]},
    {"smiles": "CC(=O)NC1CCN(c2ncccn2)CC1", "values": [
      {"measurement": "IC50", "setting": "[5]; read-out: pIC50 (converted)", "result": "> 1000", "unit": "µM"}
    ]},
    {"smiles": "O=C(O)/C(O)=C/C(=O)c1ccc2[nH]ccc2c1", "values": [
      {"measurement": "IC50", "setting": "[6]", "result": 0.02, "unit": "µM"}
    ]},
    {"smiles": "N#Cc1ccc(N2CCC(CCC(=O)N3CCCC3)CC2)cc1", "values": [
      {"measurement": "ΔTm", "setting": "[4]", "result": 7.5, "unit": "°C"}
    ]},
    {"smiles": "O=C1CC2CCC(C1)N2CCc1ccc(Cl)cc1", "values": [
      {"measurement": "microsomal CLint", "setting": "[7]", "result": 60, "unit": "µL/min/mg"},
      {"measurement": "ΔTm", "setting": "[8]", "result": 3.4, "unit": "°C"},
      {"measurement": "IC50", "setting": "[9]", "result": 1, "unit": "µM"}
    ]},
    {"smiles": "Cc1cc(N)n(Cc2nnc(Nc3ccn(Cc4c(F)cccc4Cl)n3)s2)n1", "values": [
      {"measurement": "Kd", "setting": "[1]", "result": 7.1, "unit": "µM"}
    ]},
    {"smiles": "O=C(O)c1cc(Cl)c(O)c(Cl)c1", "values": [
      {"measurement": "MIC", "setting": "[10]", "result": 971, "unit": "µM"}
    ]},
    {"smiles": "O=C(NCCC(F)(F)F)c1ccc(-c2noc(C3CC3)n2)cc1", "values": [
      {"measurement": "CLH", "setting": "[11]", "result": 69, "unit": "µL/min"},
      {"measurement": "ΔTm", "setting": "[12]", "result": 10.2, "unit": "°C"},
      {"measurement": "EC50", "setting": "[13]", "result": 0.07, "unit": "µM"},
      {"measurement": "log(activity)", "setting": "[14]", "result": 2}
    ]},
    {"smiles": "Cc1cc(N)n(Cc2ccccc2)n1", "values": [
      {"measurement": "Kd", "setting": "[1]", "result": 3.3, "unit": "µM"}
    ]},
    {"smiles": "COc1ccc(-c2nc(O)c3ccccc3n2)cc1", "values": [
      {"measurement": "MIC99", "setting": "[15]", "result": 31.5, "unit": "µg/mL"}
    ]},
    {"smiles": "CCOC(=O)c1cc(Cl)c(O)c(Cl)c1", "values": [
      {"measurement": "MIC99", "setting": "[16]", "result": "< 53", "unit": "µM"}
    ]},
    {"smiles": "COc1ccc(CCC(=O)N2CCC(SS[C@@H]3CCN(C(=O)CCc4ccc(OC)cc4)C3)C2)cc1", "note": "(stereo partly drawn)", "values": [
      {"measurement": "IC50", "setting": "[17]", "result": 1.1, "unit": "µM"}
    ]},
    {"smiles": "Cc1c(C(=O)O)cnn1-c1ccccc1", "values": [
      {"measurement": "ΔTm", "setting": "[3]", "result": 1.2, "unit": "°C"},
      {"measurement": "Kd", "setting": "Dihydrofolate reductase", "result": 0.64, "unit": "µM"}
    ]},
    {"smiles": "Nc1c(Cl)cc(S(N)(=O)=O)cc1Cl", "values": [
      {"measurement": "MIC", "setting": "[18]", "result": 833, "unit": "µM"}
    ]},
    {"smiles": "CNCc1ccc(N2CCCCC2)cc1", "values": [
      {"measurement": "ΔTm", "setting": "[4]", "result": 3.8, "unit": "°C"},
      {"measurement": "IC50", "setting": "[17]", "result": "> 100", "unit": "µM"}
    ]},
    {"smiles": "O=C(NCc1cccnc1)NC1CCCCC1", "values": [
      {"measurement": "IC50", "setting": "[5]; read-out: pIC50 (converted)", "result": "> 1000", "unit": "µM"}
    ]},
    {"smiles": "O=C1CC2CCC(C1)N2CCc1ccc(C(F)(F)F)cc1", "values": [
      {"measurement": "ΔTm", "setting": "[19]", "result": 0.6, "unit": "°C"},
      {"measurement": "IC50", "setting": "[9]", "result": 0.2, "unit": "µM"}
    ]},
    {"smiles": "Cc1cc(N)n(Cc2ccc(C(=O)NCc3ccc(F)cc3Cl)cc2)n1", "values": [
      {"measurement": "Kd", "setting": "[1]", "result": 8, "unit": "µM"}
    ]},
    {"smiles": "CC1(C)CCC(Cc2cc(O)c(-c3ccccc3)c(=O)[nH]2)CC1", "values": [
      {"measurement": "IC50", "setting": "[5]; read-out: pIC50 (converted)", "result": 10, "unit": "µM"},
      {"measurement": "log(activity)", "setting": "[20]", "result": 1.5}
    ]},
    {"smiles": "NS(=O)(=O)c1cc(Cl)cc(Cl)c1", "values": [
      {"measurement": "MIC99", "setting": "[16]", "result": 111, "unit": "µM"}
    ]},
    {"smiles": "CCNc1nnc(Cn2nc(C)cc2C)s1", "values": [
      {"measurement": "IC50", "setting": "[5]; read-out: pIC50 (converted)", "result": "> 1000", "unit": "µM"}
    ]},
    {"smiles": "O=C(Nc1ccc(I)cc1C(=O)O)c1ccc(Cl)c(Cl)c1", "values": [
      {"measurement": "IC50", "setting": "[5]; read-out: IC50", "result": 38, "unit": "µM"},
      {"measurement": "MIC90", "setting": "[21]", "result": 300, "unit": "µM"}
    ]},
    {"smiles": "O=C(O)/C=C/c1cccc(C(F)(F)F)c1", "values": [
      {"measurement": "ΔTm", "setting": "[12]", "result": 3.2, "unit": "°C"}
    ]},
    {"smiles": "O=C(O)/C(O)=C/C(=O)c1ccccc1Br", "values": [
      {"measurement": "IC50", "setting": "[6]", "result": 0.6, "unit": "µM"},
      {"measurement": "MIC99", "setting": "[22]", "result": 6.25, "unit": "µM"}
    ]},
    {"smiles": "CC(C)(C)OC(=O)Nc1ccc(I)cc1C(=O)O", "values": [
      {"measurement": "IC50", "setting": "[5]; read-out: IC50", "result": 280, "unit": "µM"},
      {"measurement": "MIC90", "setting": "[21]", "result": 300, "unit": "µM"}
    ]}
  ]
}
